Assays:
Assay type in all cases: cell-based
Caco2 cells = experiment: Response of Caco2 cells to EGFR inhibitors with fibroblast conditioned medium; conditions: SRI 31215 10 μM, JNJ 38877605 1 μM; for response to cetuximab in the presence of fibroblast-derived CM: 18Co CM; for fibroblast-mediated resistance to gefitinib: 18Co conditioned medium
Method: Figure 5 Inhibitors of HGF/MET signaling prevent the innate and acquired resistance to cetuximab A. and B. RKO cells were treated with cetuximab (50 μg/ml) (A) of gefitinib (B) alone, or in combination with SRI 31215 (10 μM), JNJ 38877605 (1 μM) or recombinant HAI-1 (20 nM) as indicated and clonogenic growth was monitored as described in Materials and Methods. C. and D. Caco2 cells were treated with cetuximab or gefitinib alone or in the presence of CM from fibroblasts and SRI 31215 (10 μM) or JNJ 38877605 (1 μM) as indicated. #: p<0.05, compared to control (CTRL); NS: not significant.
(§1) Cell titer-glo luminescent cell viability assay kit was purchased from Promega. […] For clonogenic assay, cells were seeded in 6-well plates at a density of 400 cells per well, serum starved overnight, and treated as indicated. After colony formation (8-12 days), cells were stained with crystal violet and the number of colonies was determined using ImageQuantTL (GE Health Care Life Sciences).

HT29 cells = experiment: Viability of HT29 cells with EGFR inhibitor; conditions: HT29 cells (HGF-), gefitinib 5 μM; SRI 31215 10 μM, JNJ 38877605 1 μM
Method: as §1
Supplementary Figure S3: Inhibition of HGF/MET signaling sensitizes HGF-producing RKO colon cancer cells to gefitinib. A. RKO cells (HGF+) and B. HT29 (HGF-) cells were treated with gefitinib (5 μM) in the absence or the presence of SRI 31215 (10 μM) or JNJ 38877605 (1 μM) as indicated and viability was determined 24 and 72 hours after treatment. # indicates statistical significance compared to samples treated with gefitinib alone as determined by Students’ t-test (p<0.05).
(also on this page, place not known: www.impactjournals.com/oncotarget/ Oncotarget, Materials 2016 Supplementary (HGF +) (HGF -)) […]

DU145 cells [1] = experiment: EMT markers E-cadherin and vimentin (immunofluorescence, immunoblotting); conditions: 24 hours, SRI 31215 10 μM, JNJ 38877605 1 μM; for fibroblast-induced expression of vimentin / fibroblast-induced inhibition of E-cadherin: 18Co conditioned media
Method: Figure 3 SRI 31215 inhibits fibroblast-induced EMT in DU145 cells Cells were stimulated with HGF or 18Co conditioned media for 24 hours in the absence or presence of SRI 31215 (10 μM) or JNJ 38877605 (1 μM) as indicated. The expression of E-cadherin was monitored by immunofluorescence A. The levels of E-cadherin and vimentin were also determined by immunoblotting B.
(§2) Immunoblotting was performed using standard procedures. Membranes were blocked with 5% non-fat milk for 1 hour at RT, and incubated with primary antibodies overnight at 4°C. Primary antibodies used were anti-HGF (R&D Systems), anti-MET, anti-p-MET, anti-p-GAB1, anti-p-AKT, anti-p-ERK1/2, anti-vimentin (Cell Signaling Technology), anti-p-STAT3 (Upstate Cell Signaling Solutions), anti-E-cadherin (BD Transduction Laboratories), anti-β-actin (Sigma). Following washing with TBS-T buffer, membranes were incubated with horseradish peroxidase-conjugated secondary antibodies for 1 hour and then washed with TBS-T. Immunoblots were developed using the chemiluminescent detection system with ECL (Amersham). Protein loading was normalized by probing blots for the expression of β-actin.
Cells were seeded at 1×10^3 cells per well in chamber slides. Following overnight serum-starvation, cells were treated with recombinant HGF (10 ng/ml) or conditioned media prepared from fibroblasts (50%) in the presence or absence of SRI 31215 (10 μM) or JNJ 38877605 (1 μM) for 24 hours. Cells were washed with PBS, fixed in ice-cold methanol/acetic acid solution [95:5 (v/v)] for 20 minutes at-20°C and incubated with anti-E-cadherin antibodies overnight at 4°C. Slides were washed with PBS, incubated with Alexa Fluor 568 conjugated secondary antibody for 1 hour at 37°C and examined with a fluorescent microscope.

DiFi cells [2] = experiment: Viability of DiFi cells with EGFR inhibitors and fibroblast conditioned medium; conditions: gefitinib 0.5 μM or cetuximab 0.5 μg/ml, 72 hours
Method: Figure 6 Fibroblasts inhibit the proapoptotic activity of EGFRi in an HGF-dependent manner A. and B. DiFi cells were treated with gefitinib (0.5 μM) or cetuximab (0.5 μg/ml) in the absence or the presence of conditioned medium from fibroblasts and SRI 31215 and JNJ 38877605 as indicated. The viability was determined after 72 hours. In B, fibroblast conditioned medium was incubated with anti HGF or anti-IL1β antibodies. C. and D. DiFi cells were treated with gefitinib (C) or cetuximab (D) in the presence of conditioned medium from fibroblasts and inhibitors of HGF/MET signaling as indicated for 18h. Caspase activity was assessed by the Caspase-Glo 3/7 Assay from Promega.
as §1

DU145 cells [3] = experiment: Scratch assay and transwell migration assay; conditions: SRI 31215 10 μM, JNJ 38877605 1 μM; for fibroblast-induced migration: 18Co or WI38 conditioned media
Method: Cancer cells were seeded in 12-well plates and allowed to reach confluence. Following overnight serum-starvation, a scratch/wound was introduced into the cell monolayer with a sterile tip. Cells were cultured in serum-free media or were treated with recombinant HGF (10 ng/ml) or serum-free conditioned media from fibroblasts (50%) in the presence or absence of SRI 31215 or JNJ 38877605. Images of migrating cells were captured at 0, 12 and 24 hours after the treatment.
Cytoselect cell migration assay kit was purchased from Cell Biolabs, Inc and the assay was performed according to the manufacturer's instructions. Briefly, DU145 cells (75×10^3) were seeded in transwells ([…] inserts) in serum-free media and were stimulated with recombinant HGF or with conditioned media from 18Co or WI38 fibroblasts (in the absence or the presence of SRI 31215 or JNJ 38877605). Cells were incubated for 12 hours and non-migratory cells were gently removed from inside of the inserts. Inserts were stained for 10 minutes at room temperature, transferred to wells containing 200 μl of extraction buffer and incubated for 10 minutes on a shaker. The optical density (OD) was measured at 560 nm.

DiFi cells [4] = experiment: DiFi cells co-cultured with WI38 fibroblasts, immunoblotting; conditions: gefitinib 0.5 μM, WI38 co-culture, SRI 31215 10 μM, JNJ38877605 1 μM
Method: Figure 7 Fibroblasts protect DiFi cells from EGFRi in an HGF-dependent manner DiFi cells were treated with gefitinib (0.5 μM) alone or were co-cultured with WI38 fibroblasts (FIB) in the absence or the presence of SRI 31215 (10 μM) or JNJ38877605 (1 μM). The DiFi cell lysates were isolated after 4 or 24 hours as indicated and examined for the expression of pERK and total ERK, pEGFR and total EGFR, cleaved PARP, β-catenin gelsolin and β-actin by immunoblotting.
as §2

For `Cn1cc(-c2ccc3nnc(C(F)(F)c4ccc5ncccc5c4)n3n2)cn1` [JNJ 38877605, reference compound], the “response to cetuximab in the presence of fibroblast-derived CM” value (Caco2 cells) was “restored the response”, the “fibroblast-mediated resistance to gefitinib” value (Caco2 cells) was “overcame” and the “response to EGFRi” value (HT29 cells) was “did not improve”. The “fibroblast-induced expression of vimentin” value (DU145 cells [1]) was “prevented”, the “fibroblast-induced inhibition of E-cadherin” value (DU145 cells [1]) was “prevented” and the “expression of E-cadherin in HGF-treated cells” value (DU145 cells [1]) was “restored”. The “fibroblast-mediated resistance to gefitinib and cetuximab (viability)” value (DiFi cells [2]) was “prevent”, the fibroblast-induced migration (DU145 cells [3]) was “completely prevented” and the HGF-induced migration (DU145 cells [3]) was “completely prevented”. The “gefitinib-induced cleavage of PARP in the presence of fibroblasts” value (DiFi cells [4]) was “restored” and the “prosurvival activity of fibroblasts (EGFR and ERK phosphorylation under gefitinib)” value (DiFi cells [4]) was “blocked”.

With `CC1CN(CC2CCN(Cc3ccccc3)CC2)C(=O)N(c2cccc(C(=N)N)c2)C1` (stereo not drawn) [SRI 31215, 3-(3-((1-benzylpiperidin-4-yl)methyl)-5-methyl-2-oxotetrahydropyrimidin-1(2H)-yl)benzimidamide] the “response to cetuximab in the presence of fibroblast-derived CM” value (Caco2 cells) was “restored the response”, the “fibroblast-mediated resistance to gefitinib” value (Caco2 cells) was “overcame” and the “response to EGFRi” value (HT29 cells) was “did not improve”. For the same molecule, the “fibroblast-induced expression of vimentin” value (DU145 cells [1]) was “prevented”, the “fibroblast-induced inhibition of E-cadherin” value (DU145 cells [1]) was “prevented” and the “fibroblast-mediated resistance to gefitinib and cetuximab (viability)” value (DiFi cells [2]) was “prevent”. The fibroblast-induced migration (DU145 cells [3]) was “inhibited”, the HGF-induced migration (DU145 cells [3]) was “did not interfere” and the “gefitinib-induced cleavage of PARP in the presence of fibroblasts” value (DiFi cells [4]) was “restored”. The “prosurvival activity of fibroblasts (EGFR and ERK phosphorylation under gefitinib)” value (DiFi cells [4]) was “blocked”.
